Drawing on ChEMBL document CHEMBL3091390, “Novel Mps1 kinase inhibitors: from purine to pyrrolopyrimidine and quinazoline leads” (Bioorg Med Chem Lett, 2013), this text covers IC50 for 18 compounds.

For experiment [1], the target named is T1, Dual specificity protein kinase TTK (Homo sapiens, UniProt P33981).
T1 sequence (P33981 whole entry): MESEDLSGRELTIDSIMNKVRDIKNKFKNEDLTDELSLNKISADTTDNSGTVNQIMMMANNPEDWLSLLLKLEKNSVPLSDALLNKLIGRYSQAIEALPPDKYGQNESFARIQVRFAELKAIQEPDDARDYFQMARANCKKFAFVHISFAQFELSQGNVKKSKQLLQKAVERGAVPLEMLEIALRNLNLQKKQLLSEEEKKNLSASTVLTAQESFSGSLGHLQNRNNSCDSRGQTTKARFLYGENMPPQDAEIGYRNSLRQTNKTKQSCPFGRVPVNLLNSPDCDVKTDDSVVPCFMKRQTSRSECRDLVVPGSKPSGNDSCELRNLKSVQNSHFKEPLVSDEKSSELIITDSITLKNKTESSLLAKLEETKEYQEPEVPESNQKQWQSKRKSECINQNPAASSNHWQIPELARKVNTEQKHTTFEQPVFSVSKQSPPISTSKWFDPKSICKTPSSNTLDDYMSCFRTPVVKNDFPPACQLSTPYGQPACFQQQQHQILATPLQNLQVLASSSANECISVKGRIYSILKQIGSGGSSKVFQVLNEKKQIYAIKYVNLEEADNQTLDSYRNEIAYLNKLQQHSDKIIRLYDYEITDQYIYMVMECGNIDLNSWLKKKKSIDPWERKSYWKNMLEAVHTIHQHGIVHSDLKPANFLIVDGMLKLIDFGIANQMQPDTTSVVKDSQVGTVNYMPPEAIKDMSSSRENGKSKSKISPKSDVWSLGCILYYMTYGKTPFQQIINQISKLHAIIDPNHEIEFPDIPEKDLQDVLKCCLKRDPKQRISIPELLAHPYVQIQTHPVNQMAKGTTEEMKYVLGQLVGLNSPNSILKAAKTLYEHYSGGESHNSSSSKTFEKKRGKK
Description: Inhibition of full-length Mps1 kinase (unknown origin).

In the next experiment the test system is HCT-116. Description: Cytotoxicity against human HCT116 cells. The class given is functional, cell-based.

`COc1cc(N2CCN(S(C)(=O)=O)CC2)ccc1Nc1ncc(C)c(N(C)C2CCCCC2)n1` yielded an IC50 in experiment [1] of more than 100 nM. The same measure, in the same setting: the value for `COc1cc(N2CCN(S(C)(=O)=O)CC2)ccc1Nc1ncc2ccn(-c3cccnc3)c2n1` was more than 100 nM. For `COc1cc(N2CCN(S(C)(=O)=O)CC2)ccc1Nc1ncc2cccc(-c3cccnc3)c2n1`, the concentration for half-maximal inhibition (IC50) worked out at 1580 nM in the experiment with HCT-116 and 8 nM in experiment [1].

`COc1cc(N2CCN(S(C)(=O)=O)CC2)ccc1Nc1ncc(C)c(NC2CCCCC2)n1`: the IC50 with HCT-116 amounted to 1500 nM; in experiment [1], 28 nM.

Turning to `COc1cc(N2CCN(S(C)(=O)=O)CC2)ccc1Nc1nccc(N(C)C2CCCCC2)n1`, the IC50 was 2000 nM in the experiment on HCT-116 and 35 nM in experiment [1]. `COc1cc(N2CCN(S(C)(=O)=O)CC2)ccc1Nc1ncc2cccc(-c3ccccc3)c2n1`: the half-inhibitory concentration (IC50) with HCT-116 stood at 1740 nM; in experiment [1], 5 nM. Regarding `Cc1cc(N2CCOCC2)ccc1Nc1ncc2ccn(C3CCCCC3)c2n1`, the IC50 in the experiment with HCT-116 came to 8600 nM; in experiment [1], 22 nM.

Consider `COc1cc(N2CCOCC2)ccc1Nc1ncc2ccn(C3CCCCC3)c2n1`, for which the results for the IC50 (with HCT-116; in experiment [1]) were 7500 nM and 46 nM, respectively. As to `COc1cc(N2CCN(S(C)(=O)=O)CC2)ccc1Nc1ncc2ccn(C3CCCCC3)c2n1`, the concentration for half-maximal inhibition (IC50) in the experiment on HCT-116 was 750 nM; in experiment [1], 20 nM. The like results for `COc1cc(N2CCN(S(C)(=O)=O)CC2)ccc1Nc1ncc2cccc(NC3CCCCC3)c2n1` were, in that order, 810 nM and 2 nM. Regarding `COc1cc(N2CCOCC2)ccc1Nc1ncc2ccc(NC3CCCCC3)cc2n1`, the IC50 in experiment [1] was more than 100 nM. As to `COc1cc(N2CCOCC2)ccc1Nc1ncc2cccc(NC3CCCCC3)c2n1`, the values for the concentration for half-maximal inhibition (IC50) (in the experiment with HCT-116; in experiment [1]) were 6320 nM and 9 nM, respectively. In the same order, the values of `COc1cc(N2CCN(S(C)(=O)=O)CC2)ccc1Nc1ncc2ccn(-c3ccccn3)c2n1` are 10000 nM and 32 nM. In turn, `Cc1cc(N2CCOCC2)ccc1Nc1nc(NC2CCCCC2)c2nc[nH]c2n1` registered a half-maximal inhibitory concentration (IC50) with HCT-116 of 23 nM. `COc1cc(N2CCOCC2)ccc1Nc1ncc2cccc(-c3ccccc3)c2n1`: the half-inhibitory concentration (IC50) in the experiment on HCT-116 was found to be 850 nM; in experiment [1], 12 nM. For the compound `COc1cc(N2CCN(S(C)(=O)=O)CC2)ccc1Nc1ncc2ccn(-c3ccccc3)c2n1`, the IC50 in experiment [1] was more than 100 nM.

The compound `COc1cc(N2CCN(S(C)(=O)=O)CC2)ccc1Nc1nccc(NC2CCCCC2)n1` gave an IC50 in experiment [1] of more than 100 nM.

In experiment [1], `COc1cc(N2CCOCC2)ccc1Nc1ncc2ccc(-c3ccccc3)cc2n1` returned an IC50 of more than 100 nM.
